Legend:
aggrecanase-1 = target: T1, aggrecanase-1 (Homo sapiens, UniProt O75173); experiment: Aggrecanase-1 inhibitory action, Particle Assay (GAG release from aggrecan-containing polyacrylamide particles); type: biochemical; conditions: 37° C. for 15 hr, read-out: Experimental Example 1 IC50 AG1
T1 sequence (O75173 213-837): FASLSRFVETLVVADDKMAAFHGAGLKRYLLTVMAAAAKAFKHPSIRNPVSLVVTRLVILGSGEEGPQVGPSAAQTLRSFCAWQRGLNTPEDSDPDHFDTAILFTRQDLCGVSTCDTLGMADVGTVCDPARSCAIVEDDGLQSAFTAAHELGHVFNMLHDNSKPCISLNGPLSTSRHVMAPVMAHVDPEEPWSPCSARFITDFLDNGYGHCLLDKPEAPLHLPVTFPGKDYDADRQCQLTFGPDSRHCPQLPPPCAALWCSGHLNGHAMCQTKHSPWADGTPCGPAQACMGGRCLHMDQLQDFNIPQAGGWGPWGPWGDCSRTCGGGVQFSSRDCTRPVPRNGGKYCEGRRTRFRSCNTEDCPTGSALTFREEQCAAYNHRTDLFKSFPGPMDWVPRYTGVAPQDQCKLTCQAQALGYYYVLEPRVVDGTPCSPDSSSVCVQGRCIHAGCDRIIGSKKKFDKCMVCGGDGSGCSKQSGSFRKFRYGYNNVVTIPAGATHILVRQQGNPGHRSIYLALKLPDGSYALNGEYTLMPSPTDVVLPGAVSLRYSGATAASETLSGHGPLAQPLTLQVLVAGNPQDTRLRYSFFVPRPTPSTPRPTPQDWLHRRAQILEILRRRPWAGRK
Summary of the method: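 IC50 (μM) derived from % inhibition, referenced to enzyme-free and inhibitor-free wells, of GAG release read as 1,9-dimethylmethylene blue absorbance at 595 nm (chondroitin sulfate standard). Substrate: aggrecan-bearing polyacrylamide particles, exposed to enzyme plus compound in Tris-HCl for 15 hr at 37 °C.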

MMP-1 = target: T2, MMP-1 (Homo sapiens, UniProt P03956); experiment: MMP-1 inhibitory action, Type I collagen Activity Measurement kit (FITC-labeled collagen type I); type: biochemical; conditions: 37° C. for 3 hr, read-out: Experimental Example 2 IC50 MMP1
T2 sequence (P03956 100-469): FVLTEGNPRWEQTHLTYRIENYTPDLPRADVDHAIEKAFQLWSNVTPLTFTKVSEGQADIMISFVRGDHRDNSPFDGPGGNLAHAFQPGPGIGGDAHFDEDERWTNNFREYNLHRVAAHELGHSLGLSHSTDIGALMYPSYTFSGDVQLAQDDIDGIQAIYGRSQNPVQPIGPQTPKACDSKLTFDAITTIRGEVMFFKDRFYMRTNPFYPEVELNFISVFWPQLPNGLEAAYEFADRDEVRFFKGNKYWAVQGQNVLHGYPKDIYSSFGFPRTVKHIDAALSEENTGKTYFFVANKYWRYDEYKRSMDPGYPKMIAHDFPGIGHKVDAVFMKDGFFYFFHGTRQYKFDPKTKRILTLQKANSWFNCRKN

IC50 (aggrecanase-1)	IC50 (MMP-1)	Compound
< 0.1 µM	≥ 10 µM	O=C(O)[C@@]1(N(CCNc2nnn[nH]2)S(=O)(=O)c2ccc(-c3ccc(Cl)cc3)cc2)C[C@H]1c1cccc(Oc2ccccc2)c1 (relative stereo) [Example 1-109, (1R*,2S*)-1-{(4′-chloro-biphenyl-4-sulfonyl)-[2-(1H-tetrazol-5-ylamino)-ethyl]-amino}-2-(3-phenoxy-phenyl)-cyclopropanecarboxylic acid]
< 1 µM	≥ 10 µM	O=C(O)[C@@]1(N(CCCNc2nn[nH]n2)S(=O)(=O)c2ccc(-c3ccc(Cl)cc3)cc2)C[C@H]1c1ccccc1 (relative stereo) [Example 1-110, (1R*,2S*)-1-{(4′-chloro-biphenyl-4-sulfonyl)-[3-(2H-tetrazol-5-ylamino)-propyl]-amino}-2-phenyl-cyclopropanecarboxylic acid]
< 1 µM	≥ 10 µM	COC(=O)c1cn(CCN([C@]2(C(=O)O)C[C@H]2c2ccccc2)S(=O)(=O)c2ccc(-c3ccc(Cl)cc3)cc2)cn1 (relative stereo) [Example 1-112, 1-{2-[((1R*,2S*)-1-carboxy-2-phenyl-cyclopropyl)-(4′-chloro-biphenyl-4-sulfonyl)-amino]-ethyl}-1H-imidazole-4-carboxylic acid methyl ester]
< 0.1 µM	≥ 10 µM	CNC(=O)c1cn(CCN([C@]2(C(=O)O)C[C@H]2c2ccccc2)S(=O)(=O)c2ccc(-c3ccc(Cl)cc3)cc2)cn1 (relative stereo) [Example 1-113, (R*,2S*)-1-{(4′-chloro-biphenyl-4-sulfonyl)-[2-(4-methylcarbamoyl-imidazol-1-yl)-ethyl]-amino}-2-phenyl-cyclopropanecarboxylic acid]
< 1 µM	≥ 10 µM	O=C(O)c1cccc(CN([C@]2(C(=O)O)C[C@H]2c2ccccc2)S(=O)(=O)N2CCN(c3ccc(Cl)cc3)CC2)c1 (relative stereo) [Example 1-115, 3-({((1R*,2S*)-1-carboxy-2-phenyl-cyclopropyl)-[4-(4-chloro-phenyl)-piperazine-1-sulfonyl]-amino}-methyl)-benzoic acid]
< 0.1 µM	≥ 10 µM	O=C(O)c1cnn(CCN(C2(C(=O)O)CC2c2ccccc2)S(=O)(=O)c2ccc(-c3ccc(Cl)cc3)cc2)c1 (stereo not drawn) [Example 1-79, 1-{2-[(1R*,2S*)-1-carboxy-2-phenyl-cyclopropyl)-(4′-chloro-biphenyl-4-sulfonyl)-amino]-ethyl}-1H-pyrazol-4-carboxylic acid]
< 1 µM	≥ 10 µM	NS(=O)(=O)NCCN(C1(C(=O)O)CC1c1ccccc1)S(=O)(=O)c1ccc(-c2ccc(Cl)cc2)cc1 (centres unmarked) [Example 1-84]
< 0.1 µM	≥ 10 µM	O=C(O)c1cn(CCN(C2(C(=O)O)CC2c2ccccc2)S(=O)(=O)c2ccc(-c3ccc(Cl)cc3)cc2)cn1 (stereo not drawn) [Example 1-104, 1-{2-[(1R*,2S*)-1-carboxy-2-phenyl-cyclopropyl)-(4′-chloro-biphenyl-4-sulfonyl)-amino]-ethyl}-1H-imidazole-4-carboxylic acid]

Second part, the compound before the results:

Compound	IC50 (aggrecanase-1)	IC50 (MMP-1)
O=C(O)[C@@]1(N(CCO)S(=O)(=O)c2ccc(-c3ccc(Cl)cc3)cc2)C[C@H]1c1cccc(Oc2ccccc2)c1 (relative stereo) [Example 1-114, (1R*,2S*)-1-[(4′-chloro-biphenyl-4-sulfonyl)-(2-hydroxy-ethyl)-amino]-2-(3-phenoxy-phenyl)-cyclopropanecarboxylic acid]	< 1 µM	≥ 10 µM
O=C(O)[C@]12[C@H](CCN1S(=O)(=O)c1ccc(-c3ccc(Cl)cc3)cc1)[C@H]2c1ccccc1 (relative stereo) [Example 2-02, (1R*, 5R*,6S*)-2-(4′-chlorobiphenyl-4-sulfonyl)-6-phenyl-2-aza-bicyclo[3.1.0]hexane-1-carboxylic acid]	≥ 10 µM	≥ 10 µM
O=C(O)CN(C1(C(=O)O)C[C@H]1Cc1ccccc1)S(=O)(=O)c1ccc(-c2ccc(Cl)cc2)cc1 (stereo in doubt) [Example 1-3, (1S,2R)-2-benzyl-1-[carboxymethyl-(4′-chloro-biphenyl-4-sulfonyl)-amino]-cyclopropanecarboxylic acid]	< 1 µM	≥ 10 µM
COc1cccc([C@@H]2CC2(C(=O)O)N(CC(=O)O)S(=O)(=O)c2ccc(-c3ccc(Cl)cc3)cc2)c1 (stereo in doubt) [Example 1-21, (1R*,2S)-1-[carboxymethyl-(4′-chloro-biphenyl-4-sulfonyl)-amino]-2-(3-methoxy-phenyl)-cyclopropanecarboxylic acid]	< 1 µM	≥ 10 µM
NC(=O)CN(C1(C(=O)O)C[C@H]1c1ccccc1)S(=O)(=O)c1ccc(-c2ccc(Cl)cc2)cc1 (stereo in doubt) [Example 1-36, (1R*,2S)-1-[carbamoylmethyl-(4′-chloro-biphenyl-4-sulfonyl)-amino]-2-phenyl-cyclopropanecarboxylic acid]	< 1 µM	≥ 10 µM
O=C(O)CN([C@]1(C(=O)O)C[C@H]1c1ccccc1)S(=O)(=O)c1ccc(-c2ccc(Cl)cc2)cc1 [Example 1-2, (1R,2S)-1-[carboxymethyl-(4′-chloro-biphenyl-4-sulfonyl)-amino]-2-phenyl-cyclopropanecarboxylic acid]	< 0.1 µM	≥ 10 µM
O=C(O)CN(C1(C(=O)O)CC1c1cccc(OCc2ccccc2)c1)S(=O)(=O)c1ccc(-c2ccc(Cl)cc2)cc1 (centres unmarked) [Example 1-50]	< 1 µM	≥ 1 µM
O=C(O)C1(N(Cc2noc(=O)[nH]2)S(=O)(=O)c2ccc(-c3ccc(Cl)cc3)cc2)CC1c1ccccc1 (stereo not drawn) [Example 1-64, (R*,2S*)-1-[(4′-chlorobiphenyl-4-sulfonyl)-(5-oxo-4,5-dihydro[1.2.4]oxadiazol-3-ylmethyl)-amino]-2-phenylcyclopropanecarboxylic acid]	< 0.1 µM	≥ 10 µM
O=C(O)c1cc(CN(C2(C(=O)O)CC2c2ccccc2)S(=O)(=O)c2ccc(-c3ccc(Cl)cc3)cc2)on1 [Example 1-82, 5-{[((R, 2S*-1-carboxy-2-phenyl-cyclopropyl)-(4′-chloro-biphenyl-4-sulfonyl)-amino]-methyl}-isooxazole-3-carboxylic acid]	< 1 µM	≥ 10 µM
O=C1NS(=O)(=O)N(CCN(C2(C(=O)O)CC2c2ccccc2)S(=O)(=O)c2ccc(-c3ccc(Cl)cc3)cc2)C1=O (stereo not drawn) [Example 1-83, (1R*,2S*)-1-{(4′-chloro-biphenyl-4-sulfonyl)-[2-(1,1,3,4-tetraoxo-llambda*6*-[1,2,5]thiadiazolidin-2-yl)-ethyl]-amino}-2-phenyl-cyclopropanecarboxylic acid]	< 0.1 µM	≥ 10 µM
O=C(O)c1cccc(CN(C2(C(=O)O)CC2c2cccc(OCCn3ccnc3)c2)S(=O)(=O)c2ccc(-c3ccc(Cl)cc3)cc2)c1 (stereo not drawn) [Example 1-95, 3-{[{(1R*,2S*-1-carboxy-2-[3-(2-imidazol-1-yl-ethoxy)-phenyl]-cyclopropyl}-(4′-chloro-biphenyl-4-sulfonyl)-amino]-methyl}-benzoic acid]	< 0.1 µM	≥ 1 µM
O=C(O)c1cccc(CN(C2(C(=O)O)CC2c2cccc(Oc3cccnc3)c2)S(=O)(=O)c2ccc(-c3ccc(Cl)cc3)cc2)c1 (stereo not drawn) [Example 1-102, 3-{[{(1R*,2S*-1-carboxy-2-[3-(pyridin-3-yloxy)-phenylcyclopropyl}-(4′-chloro-biphenyl-4-sulfonyl)-amino]-methyl}-benzoic acid]	< 0.1 µM	≥ 10 µM
O=C(O)C(=O)c1ccc(CN(C2(C(=O)O)CC2c2ccccc2)S(=O)(=O)c2ccc(-c3ccc(Cl)cc3)cc2)cc1 (stereo not drawn) [Example 1-103, (1R*,2S*)-1-[(4′-chloro-biphenyl-4-sulfonyl)-(4-oxalyl-benzyl)-amino]-2-phenyl-cyclopropanecarboxylic acid]	< 0.1 µM	≥ 10 µM
O=C(O)[C@@]1(N(CCN2CCOCC2)S(=O)(=O)c2ccc(-c3ccc(Cl)cc3)s2)C[C@H]1c1ccccc1 [Example 2-14, (1R,2S)-1-[[5-(4-Chloro-phenyl)-thiophene-2-sulfonyl]-(2-morpholin-4-yl-ethyl)-amino]-2-phenyl-cyclopropanecarboxylic acid]	≥ 1 µM	≥ 10 µM

— patent US20050222146A1, “N-substituted-n-sulfonylaminocyclopropane compounds and pharmaceutical use thereof” (priority 2003, published 2005)
